In patent publication US20260199323A1, “LIGAND COMPOUNDS FOR E3 UBIQUITIN LIGASE, PROTEIN DEGRADERS DEVELOPED ON BASIS OF LIGAND COMPOUNDS, AND USES THEREOF” (GLUETACS THERAPEUTICS (SHANGHAI) CO., LTD., priority 2021, published 2026):
Read-outs that look alike come from different tables or passages of the source. One block for each molecule: values may come before it.

How the values were obtained:
Format in all cases: cell-based, Human
[1] = tested on: CAL-62; test: CCK-8 tumor cell proliferation, CAL-62; parameters: IC50 for inhibiting the proliferation of tumor cells, CAL-62: scale not given here; details: for IC50 for inhibiting the proliferation of tumor cells, CAL-62: 72 h; for IC50: Homo sapiens, Table 18, FAK inhibitor based, CAL-62, read-out: IC50 inhibiting proliferation of tumor cells, CAL-62
Method: (§1) The tumor cells used herein were cultured in a cell culture medium listed in table 4 at 37° C. in an incubator with 5% CO2. Prior to experimentation, all cells used were correctly identified by STR profiling, and tested negative for mycoplasma through routine screenings.
(§2) IC50 values of the compounds of the present disclosure (including the compounds in Tables 1 and 3, and compounds of examples) were measured using the Meilun Cell Counting Kit-8 kit from Dalian Meilun Biotech Co., Ltd. Assay details are as follows: tumor cells were seeded in a 96-well plate at a density listed in Table 5. After 24 h, 100 μL of the inoculated cells were treated with 0.5 μL of the compounds of the present disclosure (including the compounds in Tables 1 and 3, and compounds of examples) at 10 different successively decreasing concentrations (starting at the highest concentration of 10 μM; 5-fold serial dilutions). After the cells were treated with the compounds of the present disclosure for a period of time, the cell viability detection reagent was added to the culture medium for cell viability assessment according to the instructions provided with the CCK-8 kit. […] The growth inhibition of the compounds of the present disclosure on cells was plotted by Prism Graphpad software, and the IC50 values of the compounds of the present disclosure were calculated therefrom.

[2] = tested on: CCRF-CEM; test: CCK-8 tumor cell proliferation, CCRF-CEM; parameters: IC50 for inhibiting the proliferation of tumor cells, CCRF-CEM: scale not given here; details: for IC50 for inhibiting the proliferation of tumor cells, CCRF-CEM: 96 h
Method: as §1, §2

[3] = tested on: SR; test: CCK-8 tumor cell proliferation, SR; details: for IC50: Homo sapiens, SR, read-out: IC50 inhibiting proliferation of tumor cells, SR
Method: as §1, §2

[4] = tested on: MDA-MB-231; test: CCK-8 tumor cell proliferation, MDA-MB-231; details: Homo sapiens; Table 18, FAK inhibitor based; MDA-MB-231; read-out: IC50 inhibiting proliferation of tumor cells, MDA-MB-231
Method: as §1, §2

[5] = tested on: SW620; test: CCK-8 tumor cell proliferation, SW620; details: Homo sapiens, SW-620; Table 14, designed based on CDK4/6 inhibitors; 96 h; read-out: IC50 for inhibiting the proliferation of tumor cells, SW620
Method: as §1, §2

[6] = Table 12, designed based on CDK9 inhibitors

SMILES: COc1cc(Nc2c(C#N)cnc3cc(OCCCN4CCN(Cc5ccc6c(c5)CN(C5CCC(=O)NC5=O)C6=O)CC4)c(OC)cc23)c(Cl)cc1Cl (stereo not shown) [GT-02968, 4-((2,4-dichloro-5-methoxyphenyl)amino)-7-(3-(4-((2-(2,6-dioxopiperidin-3-yl)-1-oxoisoindolin-5-yl)methyl)piperazin-1-yl)propoxy)-6-methoxyquinoline-3-carbonitrile]
IC50 for inhibiting the proliferation of tumor cells, CAL-62 ([1]; Table 13, designed based on BCR-ABL inhibitors): A+

SMILES: Cc1sc2c(c1C)C(c1ccc(Cl)cc1)=N[C@@H](CC(=O)NCc1ccc3c(c1)CN(C1CCC(=O)NC1=O)C3=O)c1nnc(C)n1-2 (stereo partly drawn) [GT-03378, 2-((S)-4-(4-chlorophenyl)-2,3,9-trimethyl-6H-thieno[3,2-f][1,2,4]triazolo[4,3-a][1,4]diazepin-6-yl)-N-((2-(2,6-dioxopiperidin-3-yl)-1-oxoisoindolin-5-yl)methyl)acetamide]
IC50 for inhibiting the proliferation of tumor cells, CCRF-CEM ([2]; Table 16, designed based on BET inhibitors): A+

SMILES: CN(Cc1ccc2c(c1)CN(C1CCC(=O)NC1=O)C2=O)C1CCN(c2ccc(Nc3ncc(C(F)(F)F)c(NCc4cccc(N(C)S(C)(=O)=O)c4)n3)cc2)CC1 (stereo not shown) [GT-03677, N-(3-(((2-((4-(4-(((2-(2,6-dioxopiperidin-3-yl)-1-oxoisoindolin-5-yl)methyl)(methyl)amino)piperidin-1-yl)phenyl)amino)-5-(trifluoromethyl)pyrimidin-4-yl)amino)methyl)phenyl)-N-methylmethanesulfonamide]
IC50 [4]: < 50 nM

SMILES: CN(c1cccc(CNc2nc(Nc3ccc(N4CCC(N5CCN(Cc6ccc7c(c6)CN(C6CCC(=O)NC6=O)C7=O)CC5)CC4)cc3)ncc2C(F)(F)F)c1)S(C)(=O)=O (stereo not shown) [GT-03678, N-(3-(((2-((4-(4-(4-((2-(2,6-dioxopiperidin-3-yl)-1-oxoisoindolin-5-yl)methyl)piperazin-1-yl)piperidin-1-yl)phenyl)amino)-5-(trifluoromethyl)pyrimidin-4-yl)amino)methyl)phenyl)-N-methylmethanesulfonamide]
IC50 [4]: < 50 nM

SMILES: Cc1nc2c(F)cc(-c3nc(Nc4ccc(N5CCN(Cc6ccc7c(c6)CN(C6CCC(=O)NC6=O)C7=O)CC5)cn4)ncc3F)cc2n1C(C)C (stereo not shown) [GT-03688, 3-(5-((4-(6-((5-fluoro-4-(4-fluoro-1-isopropyl-2-methyl-1H-benzo[d]imidazol-6-yl)pyrimidin-2-yl)amino)pyridin-3-yl)piperazin-1-yl)methyl)-1-oxoisoindolin-2-yl)piperidine-2,6-dione]
IC50 for inhibiting the proliferation of tumor cells, SR ([3]; Table 14, designed based on CDK4/6 inhibitors, 72 h): A+

SMILES: Cc1cnc(Nc2ccc(N3CCC(N(C)Cc4ccc5c(c4)CN(C4CCC(=O)NC4=O)C5=O)CC3)cc2)nc1Nc1cccc(S(=O)(=O)NC(C)(C)C)c1 (stereo not shown) [GT-03690, N-(tert-butyl)-3-((2-((4-(4-(((2-(2,6-dioxopiperidin-3-yl)-1-oxoisoindolin-5-yl)methyl)(methyl)amino)piperidin-1-yl)phenyl)amino)-5-methylpyrimidin-4-yl)amino)benzenesulfonamide]
IC50 [4]: < 50 nM

SMILES: Cc1cnc(Nc2ccc(N3CCC(N4CCN(Cc5ccc6c(c5)CN(C5CCC(=O)NC5=O)C6=O)CC4)CC3)cc2)nc1Nc1cccc(S(=O)(=O)NC(C)(C)C)c1 (stereo not shown) [GT-03709, N-(tert-butyl)-3-((2-((4-(4-(4-((2-(2,6-dioxopiperidin-3-yl)-1-oxoisoindolin-5-yl)methyl)piperazin-1-yl)piperidin-1-yl)phenyl)amino)-5-methylpyrimidin-4-yl)amino)benzenesulfonamide]
IC50 [4]: 1000 to 5000 nM

SMILES: O=C1CCC(N2C(=O)c3ccc(CBr)cc3C2=O)C(=O)N1 (stereo not shown) [GT-03788]
IC50 for inhibiting the proliferation of tumor cells, CCRF-CEM ([2]; Table 8, designed based on ER inhibitors): A+

SMILES: Cn1ncc(-c2nc(NC3CCN(Cc4ccc5c(c4)CN(C4CCC(=O)NC4=O)C5=O)CC3)ncc2Cl)c1CC1CC1 (stereo not shown) [GT-04044, 3-(5-((4-((5-chloro-4-(5-(cyclopropylmethyl)-1-methyl-1H-pyrazol-4-yl)pyrimidin-2-yl)amino)piperidin-1-yl)methyl)-1-oxoisoindolin-2-yl)piperidine-2,6-dione]
IC50 for inhibiting the proliferation of tumor cells, CCRF-CEM [2, 6]: A+

SMILES: Cn1ncc(-c2nc(NC3CCN(Cc4ccc5c(c4F)CN(C4CCC(=O)NC4=O)C5=O)CC3)ncc2Cl)c1CC1CC1 (stereo not shown) [GT-04045, 3-(5-((4-((5-chloro-4-(5-(cyclopropylmethyl)-1-methyl-1H-pyrazol-4-yl)pyrimidin-2-yl)amino)piperidin-1-yl)methyl)-4-fluoro-1-oxoisoindolin-2-yl)piperidine-2,6-dione]
IC50 for inhibiting the proliferation of tumor cells, CCRF-CEM [2, 6]: A+
IC50 for inhibiting the proliferation of tumor cells, CAL-62 [1, 6]: A+

SMILES: Cn1ncc(-c2nc(NC3CCN(Cc4cc5c(cc4F)C(=O)N(C4CCC(=O)NC4=O)C5)CC3)ncc2Cl)c1CC1CC1 (stereo not shown) [GT-04046, 3-(5-((4-((5-chloro-4-(5-(cyclopropylmethyl)-1-methyl-1H-pyrazol-4-yl)pyrimidin-2-yl)amino)piperidin-1-yl)methyl)-6-fluoro-1-oxoisoindolin-2-yl)piperidine-2,6-dione]
IC50 for inhibiting the proliferation of tumor cells, CCRF-CEM [2, 6]: A+
IC50 for inhibiting the proliferation of tumor cells, CAL-62 [1, 6]: A+

SMILES: CN(C)C(=O)c1cc2cnc(Nc3ccc(N4CCNCC4)cn3)nc2n1C1CCCC1 [Ribociclib, reference compound]
IC50 [5]: > 10000 nM

Next, values leading:

IC50 ([3]; Table 15, ALK inhibitor based): 50 to 100 nM
SMILES: COc1cc(N2CCC(N(C)Cc3ccc4c(c3)C(=O)N(C3CCC(=O)NC3=O)C4=O)CC2)ccc1Nc1ncc(Cl)c(Nc2ccccc2P(C)(C)=O)n1 (stereo not shown) [GT-03602, 5-(((1-(4-((5-chloro-4-((2-(dimethylphosphoryl)phenyl)amino)pyrimidin-2-yl)amino)-3-methoxyphenyl)piperidin-4-yl)(methyl)amino)methyl)-2-(2,6-dioxopiperidin-3-yl)isoindoline-1,3-dione]

IC50 [4]: 1000 to 5000 nM
IC50 ([3]; Table 18, FAK inhibitor based): 100 to 500 nM
IC50 [1]: 100 to 500 nM
SMILES: CNC(=O)c1ccccc1Nc1cc(Nc2ccc(N3CCN(Cc4cccc5c4CN(C4CCC(=O)NC4=O)C5=O)CC3)cc2OC)ncc1C(F)(F)F (stereo not shown) [GT-03718, 2-((2-((4-(4-((2-(2,6-dioxopiperidin-3-yl)-1-oxoisoindolin-4-yl)methyl)piperazin-1-yl)-2-methoxyphenyl)amino)-5-(trifluoromethyl)pyridin-4-yl)amino)-N-methylbenzamide]

IC50 [4]: 50 to 100 nM
IC50 ([3]; Table 18, FAK inhibitor based): < 50 nM
IC50 [1]: 50 to 100 nM
SMILES: CNC(=O)c1ccccc1Nc1cc(Nc2ccc(N3CCC(N(C)Cc4cc5c(cc4F)C(=O)N(C4CCC(=O)NC4=O)C5)CC3)cc2OC)ncc1C(F)(F)F (stereo not shown) [GT-03729, 2-((2-((4-(4-(((2-(2,6-dioxopiperidin-3-yl)-6-fluoro-1-oxoisoindolin-5-yl)methyl)(methyl)amino)piperidin-1-yl)-2-methoxyphenyl)amino)-5-(trifluoromethyl)pyridin-4-yl)amino)-N-methylbenzamide]

IC50 [4]: 50 to 100 nM
IC50 ([3]; Table 18, FAK inhibitor based): < 50 nM
IC50 [1]: < 50 nM
SMILES: CNC(=O)c1ccccc1Nc1cc(Nc2ccc(N3CCC(N(C)Cc4cc(F)c5c(c4)CN(C4CCC(=O)NC4=O)C5=O)CC3)cc2OC)ncc1C(F)(F)F (stereo not shown) [GT-03730, 2-((2-((4-(4-(((2-(2,6-dioxopiperidin-3-yl)-7-fluoro-1-oxoisoindolin-5-yl)methyl)(methyl)amino)piperidin-1-yl)-2-methoxyphenyl)amino)-5-(trifluoromethyl)pyridin-4-yl)amino)-N-methylbenzamide]

IC50 [4]: 1000 to 5000 nM
IC50 ([3]; Table 18, FAK inhibitor based): 50 to 100 nM
IC50 [1]: 500 to 1000 nM
SMILES: CNC(=O)c1ccccc1Nc1cc(Nc2ccc(N3CCC(N(C)Cc4cccc5c4CN(C4CCC(=O)NC4=O)C5=O)CC3)cc2OC)ncc1C(F)(F)F (stereo not shown) [GT-03731, 2-((2-((4-(4-(((2-(2,6-dioxopiperidin-3-yl)-1-oxoisoindolin-4-yl)methyl)(methyl)amino)piperidin-1-yl)-2-methoxyphenyl)amino)-5-(trifluoromethyl)pyridin-4-yl)amino)-N-methylbenzamide]

IC50 ([2]; Homo sapiens, Table 18, FAK inhibitor based, CCRF-CEM, read-out: IC50 inhibiting proliferation of tumor cells, CCRF-CEM): 100 to 500 nM
SMILES: CNC(=O)c1ccccc1Nc1cc(Nc2cc(C)c(C3CCN(Cc4ccc5c(c4)C(=O)N(C4CCC(=O)NC4=O)C5=O)CC3)cc2OC(C)C)ncc1C(F)(F)F (stereo not shown) [GT-04083, 2-((2-((4-(1-((2-(2,6-dioxopiperidin-3-yl)-1,3-dioxoisoindolin-5-yl)methyl)piperidin-4-yl)-2-isopropoxy-5-methylphenyl)amino)-5-(trifluoromethyl)pyridin-4-yl)amino)-N-methylbenzamide]
